In assay [1] the target is Vascular endothelial growth factor receptor 3 (Homo sapiens, UniProt P35916). Kind of assay: Selectivity interaction (KinomeScan (DiscoverX)) EUB0000607a FLT4. The following applies: at 10 µM.
The target of assay [2] is Interleukin-1 receptor-associated kinase 1 (Homo sapiens) (UniProt P51617). Briefly: Selectivity interaction (KinomeScan (DiscoverX)) EUB0000655a IRAK1. The following applies: at 10 µM.
The target in assay [3] is T1, Myosin light chain kinase family member 4 (Homo sapiens) (UniProt Q86YV6).
T1 sequence (whole entry): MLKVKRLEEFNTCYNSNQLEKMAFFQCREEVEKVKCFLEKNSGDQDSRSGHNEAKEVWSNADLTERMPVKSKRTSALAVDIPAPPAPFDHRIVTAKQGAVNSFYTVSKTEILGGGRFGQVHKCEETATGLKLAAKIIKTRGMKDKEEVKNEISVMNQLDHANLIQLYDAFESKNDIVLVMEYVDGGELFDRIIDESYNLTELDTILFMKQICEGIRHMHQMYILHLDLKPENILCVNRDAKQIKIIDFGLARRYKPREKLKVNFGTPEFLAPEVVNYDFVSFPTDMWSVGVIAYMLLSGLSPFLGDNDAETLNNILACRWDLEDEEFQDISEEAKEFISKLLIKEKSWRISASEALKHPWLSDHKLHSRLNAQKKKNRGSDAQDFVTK
Kind of assay: Selectivity interaction (KinomeScan (DiscoverX)) EUB0000655a MYLK4. As to conditions: at 10 µM.

Assay [4] concerns the target T2, Tyrosine-protein kinase Mer (Homo sapiens) (UniProt Q12866).
T2 sequence (whole entry): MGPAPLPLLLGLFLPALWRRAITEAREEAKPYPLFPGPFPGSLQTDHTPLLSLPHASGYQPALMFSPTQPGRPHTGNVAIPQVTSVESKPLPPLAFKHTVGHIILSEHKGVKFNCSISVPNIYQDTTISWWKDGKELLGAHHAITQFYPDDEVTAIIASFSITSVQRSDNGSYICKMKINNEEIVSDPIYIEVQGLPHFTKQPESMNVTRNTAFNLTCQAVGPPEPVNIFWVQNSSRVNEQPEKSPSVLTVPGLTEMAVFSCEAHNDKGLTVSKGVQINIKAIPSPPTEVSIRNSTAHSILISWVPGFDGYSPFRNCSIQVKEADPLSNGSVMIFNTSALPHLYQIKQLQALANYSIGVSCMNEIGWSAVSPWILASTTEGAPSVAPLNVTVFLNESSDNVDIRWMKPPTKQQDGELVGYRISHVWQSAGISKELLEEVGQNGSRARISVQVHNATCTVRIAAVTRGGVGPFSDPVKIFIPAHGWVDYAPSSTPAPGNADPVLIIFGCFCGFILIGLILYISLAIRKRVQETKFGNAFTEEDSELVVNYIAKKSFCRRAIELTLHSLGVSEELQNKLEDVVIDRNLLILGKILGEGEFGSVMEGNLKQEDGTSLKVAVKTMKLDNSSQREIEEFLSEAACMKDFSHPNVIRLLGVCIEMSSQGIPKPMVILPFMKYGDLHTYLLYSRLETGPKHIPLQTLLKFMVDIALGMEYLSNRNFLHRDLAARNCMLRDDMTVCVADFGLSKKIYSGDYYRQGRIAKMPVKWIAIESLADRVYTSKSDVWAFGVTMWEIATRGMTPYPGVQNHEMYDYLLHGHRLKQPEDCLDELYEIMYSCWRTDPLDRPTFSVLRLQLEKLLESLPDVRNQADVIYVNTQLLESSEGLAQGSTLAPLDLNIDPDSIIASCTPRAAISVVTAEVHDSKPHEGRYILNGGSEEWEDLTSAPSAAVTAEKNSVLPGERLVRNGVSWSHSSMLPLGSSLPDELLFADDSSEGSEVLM
Kind of assay: Selectivity interaction (KinomeScan (DiscoverX)) EUB0001619a MERTK. The following applies: at 1 µM.

The target in assay [5] is RAC-alpha serine/threonine-protein kinase (Homo sapiens, UniProt P31749). Kind of assay: Selectivity interaction (ActivX KiNativ screen (kinase selectivity in THP-1 cell lysates)) EUB0000639a AKT1. The format is subcellular. The following applies: lysate.
Sequence of RAC-alpha serine/threonine-protein kinase (P31749 whole entry): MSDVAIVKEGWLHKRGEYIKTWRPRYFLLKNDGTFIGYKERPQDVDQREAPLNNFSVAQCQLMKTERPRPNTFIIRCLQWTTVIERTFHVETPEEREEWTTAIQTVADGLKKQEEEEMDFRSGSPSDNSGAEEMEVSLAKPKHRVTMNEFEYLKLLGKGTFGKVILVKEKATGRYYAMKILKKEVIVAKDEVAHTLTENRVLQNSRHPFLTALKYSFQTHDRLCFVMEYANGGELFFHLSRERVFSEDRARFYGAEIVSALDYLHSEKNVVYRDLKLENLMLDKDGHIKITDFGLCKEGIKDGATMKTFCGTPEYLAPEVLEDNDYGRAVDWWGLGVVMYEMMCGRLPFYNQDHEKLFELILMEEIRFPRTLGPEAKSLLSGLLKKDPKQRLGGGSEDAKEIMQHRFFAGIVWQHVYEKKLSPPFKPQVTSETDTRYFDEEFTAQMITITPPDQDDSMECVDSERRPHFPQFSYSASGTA
In assay [6] the target is Cyclin-dependent kinase 5 (Homo sapiens, UniProt Q00535). Briefly: Selectivity interaction (ActivX KiNativ screen (kinase selectivity in THP-1 cell lysates)) EUB0000639a CDK5. The following applies: lysate, at 0.01 µM. The format is subcellular.
Assay [7] deals with Receptor tyrosine-protein kinase erbB-4 (Homo sapiens, UniProt Q15303). Kind of assay: Selectivity interaction (Kinase panel (Invitrogen)) EUB0000639a ERBB4. As to conditions: at 200 nM.
Assay [8] addresses Serine/threonine-protein kinase Chk1 (Homo sapiens, UniProt O14757).
Assay [9] concerns the target T3, G protein-coupled receptor kinase 3 (Homo sapiens) (UniProt P35626).
T3 sequence (whole entry): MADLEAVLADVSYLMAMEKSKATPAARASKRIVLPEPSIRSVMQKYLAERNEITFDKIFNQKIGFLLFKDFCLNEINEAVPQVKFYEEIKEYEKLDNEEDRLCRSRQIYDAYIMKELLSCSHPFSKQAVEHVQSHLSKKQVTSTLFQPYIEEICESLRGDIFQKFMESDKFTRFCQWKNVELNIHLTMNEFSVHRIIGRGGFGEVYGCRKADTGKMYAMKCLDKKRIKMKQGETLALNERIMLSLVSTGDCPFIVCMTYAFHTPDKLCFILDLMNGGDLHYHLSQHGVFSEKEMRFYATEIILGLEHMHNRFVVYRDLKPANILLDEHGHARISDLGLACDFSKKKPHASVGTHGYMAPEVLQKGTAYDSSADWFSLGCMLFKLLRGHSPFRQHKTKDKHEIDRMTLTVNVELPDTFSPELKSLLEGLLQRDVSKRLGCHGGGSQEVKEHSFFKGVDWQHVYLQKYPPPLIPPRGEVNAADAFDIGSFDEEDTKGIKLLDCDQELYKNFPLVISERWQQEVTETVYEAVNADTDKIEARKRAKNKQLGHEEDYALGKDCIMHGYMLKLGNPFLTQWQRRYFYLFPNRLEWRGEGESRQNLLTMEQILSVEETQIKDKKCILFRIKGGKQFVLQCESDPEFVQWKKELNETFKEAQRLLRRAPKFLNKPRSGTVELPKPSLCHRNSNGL
Kind of assay: Selectivity interaction (KinomeScan (DiscoverX)) EUB0001049a ADRBK2. The following applies: at 1 µM.

The target in assay [10] is Casein kinase I isoform gamma-3 (Homo sapiens) (UniProt Q9Y6M4). Briefly: Selectivity interaction (ProQinase) EUB0000171b CSNK1G3.
Sequence of Casein kinase I isoform gamma-3 (Homo sapiens) (Q9Y6M4 whole entry, looked up, canonical isoform): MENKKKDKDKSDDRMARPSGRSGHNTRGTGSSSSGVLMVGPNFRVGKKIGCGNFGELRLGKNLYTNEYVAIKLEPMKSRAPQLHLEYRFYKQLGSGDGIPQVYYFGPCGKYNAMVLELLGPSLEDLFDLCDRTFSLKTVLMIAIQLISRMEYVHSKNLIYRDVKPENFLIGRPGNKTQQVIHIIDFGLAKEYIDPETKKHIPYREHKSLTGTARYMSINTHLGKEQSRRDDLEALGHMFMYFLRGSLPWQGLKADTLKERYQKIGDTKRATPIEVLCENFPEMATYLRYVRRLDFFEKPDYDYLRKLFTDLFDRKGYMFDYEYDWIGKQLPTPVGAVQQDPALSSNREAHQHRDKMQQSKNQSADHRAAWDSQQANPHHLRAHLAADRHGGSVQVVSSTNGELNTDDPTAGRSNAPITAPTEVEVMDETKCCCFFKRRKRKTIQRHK
The target in assay [11] is Histone acetyltransferase KAT2B (Homo sapiens, UniProt Q92831). Kind of assay: Selectivity interaction (Human bromodomain panel (DSF assay)) EUB0000233b KAT2B. Background: Differential scanning fluorimetry follows unfolding on heating by fluorescence.
Sequence of Histone acetyltransferase KAT2B (Q92831 whole entry, looked up): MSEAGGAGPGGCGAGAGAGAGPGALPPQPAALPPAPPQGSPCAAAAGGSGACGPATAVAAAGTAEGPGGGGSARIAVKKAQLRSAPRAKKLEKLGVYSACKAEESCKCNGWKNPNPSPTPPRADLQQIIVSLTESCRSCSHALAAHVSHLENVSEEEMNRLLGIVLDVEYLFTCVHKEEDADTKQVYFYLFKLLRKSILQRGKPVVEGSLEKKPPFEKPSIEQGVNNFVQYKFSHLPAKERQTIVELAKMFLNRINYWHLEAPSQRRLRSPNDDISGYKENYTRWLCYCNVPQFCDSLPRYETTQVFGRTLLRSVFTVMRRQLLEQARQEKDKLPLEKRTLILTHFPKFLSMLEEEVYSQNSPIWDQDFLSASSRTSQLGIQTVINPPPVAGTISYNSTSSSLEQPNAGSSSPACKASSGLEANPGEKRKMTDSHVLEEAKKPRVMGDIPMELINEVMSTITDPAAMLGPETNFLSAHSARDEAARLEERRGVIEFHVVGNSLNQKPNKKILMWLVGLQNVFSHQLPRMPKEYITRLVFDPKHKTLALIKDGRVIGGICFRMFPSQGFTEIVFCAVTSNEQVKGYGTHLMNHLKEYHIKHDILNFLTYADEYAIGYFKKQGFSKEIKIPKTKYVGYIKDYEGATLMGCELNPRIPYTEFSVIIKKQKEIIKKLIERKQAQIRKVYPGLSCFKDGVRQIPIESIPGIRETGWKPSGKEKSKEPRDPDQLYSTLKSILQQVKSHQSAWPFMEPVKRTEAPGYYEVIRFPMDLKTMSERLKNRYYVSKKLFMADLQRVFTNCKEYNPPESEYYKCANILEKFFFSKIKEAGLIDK
The target in assay [12] is Serine/threonine-protein kinase PAK 2 (Homo sapiens) (UniProt Q13177). Kind of assay: Selectivity interaction (KinomeScan (DiscoverX)) EUB0000092b PAK2. As to conditions: at 10 µM.
For assay [13], the target named is AP2-associated protein kinase 1 (Homo sapiens, UniProt Q2M2I8). Kind of assay: Selectivity interaction (KinomeScan (DiscoverX)) EUB0000595a AAK1. As to conditions: at 10 µM.
Sequence of AP2-associated protein kinase 1 (Q2M2I8 whole entry, looked up): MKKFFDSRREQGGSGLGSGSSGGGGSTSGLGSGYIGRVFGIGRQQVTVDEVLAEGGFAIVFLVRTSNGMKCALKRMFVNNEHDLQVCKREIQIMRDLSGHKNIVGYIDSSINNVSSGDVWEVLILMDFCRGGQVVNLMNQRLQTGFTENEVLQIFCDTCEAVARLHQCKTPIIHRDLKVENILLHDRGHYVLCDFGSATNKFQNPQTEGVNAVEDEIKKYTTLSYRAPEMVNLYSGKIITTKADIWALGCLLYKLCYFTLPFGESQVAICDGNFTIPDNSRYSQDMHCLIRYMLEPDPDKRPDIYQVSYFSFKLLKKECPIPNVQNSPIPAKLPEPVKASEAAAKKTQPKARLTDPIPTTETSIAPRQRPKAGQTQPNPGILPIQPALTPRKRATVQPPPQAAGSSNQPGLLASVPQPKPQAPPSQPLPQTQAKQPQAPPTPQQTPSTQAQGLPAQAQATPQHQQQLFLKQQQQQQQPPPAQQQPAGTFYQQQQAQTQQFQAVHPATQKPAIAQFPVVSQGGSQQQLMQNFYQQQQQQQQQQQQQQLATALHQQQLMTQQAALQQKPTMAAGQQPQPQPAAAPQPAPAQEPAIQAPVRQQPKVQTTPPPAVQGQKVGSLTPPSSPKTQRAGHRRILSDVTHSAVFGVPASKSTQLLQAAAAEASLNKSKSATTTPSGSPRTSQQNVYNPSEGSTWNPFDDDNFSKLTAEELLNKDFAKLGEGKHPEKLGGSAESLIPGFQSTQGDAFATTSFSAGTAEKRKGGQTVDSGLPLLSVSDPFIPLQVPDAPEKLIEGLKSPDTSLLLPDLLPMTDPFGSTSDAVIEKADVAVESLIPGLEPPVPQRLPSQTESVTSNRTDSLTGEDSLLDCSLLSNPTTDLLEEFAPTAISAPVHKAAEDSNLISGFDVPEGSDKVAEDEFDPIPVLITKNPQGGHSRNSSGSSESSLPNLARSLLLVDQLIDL

As a reminder, the pIC50 is −log10 of the IC50, conventionally taken in molar units. High values mean a small IC50, low ones a large IC50.

Structures are written as SMILES. pIC50: −log10 of the molar value.

Sequence of Interleukin-1 receptor-associated kinase 1 (Homo sapiens) (P51617 whole entry, looked up): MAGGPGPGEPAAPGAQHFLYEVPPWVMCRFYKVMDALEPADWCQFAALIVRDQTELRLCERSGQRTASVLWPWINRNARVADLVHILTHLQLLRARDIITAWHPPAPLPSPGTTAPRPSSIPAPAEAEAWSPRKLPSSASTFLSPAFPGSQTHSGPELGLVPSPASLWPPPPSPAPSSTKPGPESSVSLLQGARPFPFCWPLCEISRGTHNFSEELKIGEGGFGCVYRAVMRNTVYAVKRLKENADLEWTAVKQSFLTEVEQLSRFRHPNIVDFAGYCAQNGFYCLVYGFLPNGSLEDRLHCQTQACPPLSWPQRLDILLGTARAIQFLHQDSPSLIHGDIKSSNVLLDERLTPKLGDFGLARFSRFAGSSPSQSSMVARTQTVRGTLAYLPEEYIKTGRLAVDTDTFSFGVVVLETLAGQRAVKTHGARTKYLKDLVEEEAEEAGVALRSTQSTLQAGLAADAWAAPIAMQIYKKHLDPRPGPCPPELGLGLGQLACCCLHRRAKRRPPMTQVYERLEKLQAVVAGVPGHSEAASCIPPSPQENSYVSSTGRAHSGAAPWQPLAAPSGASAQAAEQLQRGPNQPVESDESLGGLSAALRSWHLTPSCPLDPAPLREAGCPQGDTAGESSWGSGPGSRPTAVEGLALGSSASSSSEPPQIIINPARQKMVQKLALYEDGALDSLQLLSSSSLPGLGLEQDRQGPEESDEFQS
Sequence of Vascular endothelial growth factor receptor 3 (P35916 whole entry): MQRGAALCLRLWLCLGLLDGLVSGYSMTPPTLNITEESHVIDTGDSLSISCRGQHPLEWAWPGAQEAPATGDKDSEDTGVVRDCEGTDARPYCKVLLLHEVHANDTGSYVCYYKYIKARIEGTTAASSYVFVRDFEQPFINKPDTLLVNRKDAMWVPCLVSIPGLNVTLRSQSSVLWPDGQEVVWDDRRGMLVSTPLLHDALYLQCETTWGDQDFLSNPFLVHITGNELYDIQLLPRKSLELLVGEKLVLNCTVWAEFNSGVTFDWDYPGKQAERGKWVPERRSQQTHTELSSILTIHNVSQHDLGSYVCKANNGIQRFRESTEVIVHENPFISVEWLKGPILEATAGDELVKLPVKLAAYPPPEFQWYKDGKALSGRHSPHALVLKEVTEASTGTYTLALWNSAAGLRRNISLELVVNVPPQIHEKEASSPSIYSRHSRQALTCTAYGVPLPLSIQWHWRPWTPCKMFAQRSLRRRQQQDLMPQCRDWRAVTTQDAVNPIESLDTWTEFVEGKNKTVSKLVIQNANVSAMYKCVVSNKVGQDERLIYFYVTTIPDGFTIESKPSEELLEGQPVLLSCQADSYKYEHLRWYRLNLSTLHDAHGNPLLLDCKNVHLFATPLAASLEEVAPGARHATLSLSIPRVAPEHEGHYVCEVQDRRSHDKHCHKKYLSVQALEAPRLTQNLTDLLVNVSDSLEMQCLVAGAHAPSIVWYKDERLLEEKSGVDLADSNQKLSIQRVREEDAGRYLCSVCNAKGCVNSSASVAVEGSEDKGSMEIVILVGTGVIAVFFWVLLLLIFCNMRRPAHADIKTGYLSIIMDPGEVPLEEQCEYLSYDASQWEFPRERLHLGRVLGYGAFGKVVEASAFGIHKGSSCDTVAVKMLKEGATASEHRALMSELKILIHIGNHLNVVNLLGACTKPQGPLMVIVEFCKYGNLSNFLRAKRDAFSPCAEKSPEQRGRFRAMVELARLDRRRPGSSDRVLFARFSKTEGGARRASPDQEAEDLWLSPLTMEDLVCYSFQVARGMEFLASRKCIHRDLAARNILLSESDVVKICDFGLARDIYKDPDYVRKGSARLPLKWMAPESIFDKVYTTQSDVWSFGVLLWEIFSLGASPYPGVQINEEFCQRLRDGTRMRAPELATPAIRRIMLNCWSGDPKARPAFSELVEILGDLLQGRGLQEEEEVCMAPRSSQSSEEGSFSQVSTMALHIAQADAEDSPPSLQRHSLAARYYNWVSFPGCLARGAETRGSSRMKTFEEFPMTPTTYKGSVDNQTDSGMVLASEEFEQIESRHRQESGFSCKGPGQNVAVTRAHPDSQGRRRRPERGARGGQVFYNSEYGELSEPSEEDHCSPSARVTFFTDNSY

The compound `CNC(=O)Nc1ccc(-c2nc(N3CC4CCC(C3)O4)c3cnn(C4CCC5(CC4)OCCO5)c3n2)cc1` gave a % of control in [1] of 88%.

Regarding `CN(C)CCOc1ccc(-c2nc(-c3ccncc3)c(-c3ccc4c(c3)CC/C4=N\O)[nH]2)cc1`, the % of control in assay [2] turned out to be 16%; in assay [3] it was 98%.

Turning to `N#Cc1cccc(-c2c[nH]c3ncnc(N4CCOCC4)c23)c1`, the % of control in assay [4] is 100%.

`CC[C@@H]1[C@H](F)C(=O)N[C@@H]1COc1nccc2cc(C(N)=O)c(OC)cc12` [ZIMLOVISERTIB]: the % of inhibition in assay [5] (at 0.01 µM) was -4.8%; in assay [5] (at 0.04 µM), 7.5%; in assay [5] (at 0.2 µM), 11.8%; in [5] (at 1 µM) it was 9.4%; in assay [5] (at 5 µM), 7.6%; in assay [6], -4.7%. Further, the % of inhibition in assay [7] was 8.76%.

Consider `CCc1cccc(CC)c1NC(=O)c1nn(C)c2c1CCc1cnc(Nc3ccc(C(=O)NC4CCN(C)CC4)cc3OC(F)(F)F)nc1-2`, for which the pIC50 in [8] is less than 5.00.

`COc1cc(Nc2nc(C)cc(-c3cnn4nc(OC)ccc34)n2)cc(C(F)(F)F)c1` yielded a % of control in assay [9] of 100%.

With `C=CC(=O)Nc1cccc(C(=O)Nc2ccc(Nc3cc(-c4[nH]c(SC)nc4C)ccn3)cc2)c1`, the % of control in assay [10] (at 1 µM) stood at 38%; in [10] (at 5 µM), 12%.

`CN(C)CCCOc1ccc(-c2cc(NCCCn3cccn3)nc(S(C)(=O)=O)n2)cc1` yielded a dTM in assay [11] of less than 2 K.

For the compound `CCC(=O)N1CCN(c2ccc(-n3c(=O)ccc4cnc5ccc(-c6cnc7ccccc7c6)cc5c43)cc2C(F)(F)F)CC1`, the % of control in [12] came to 100%.

In [13], `COCC(=O)NC/C=C/c1ccc2ncnc(Nc3ccc(Oc4ccc(C)nc4)c(C)c3)c2c1` [CP-724714] yielded a % of control of 100%.
